In the supplement of paper PMC10307832:

Columns and labels:
Experiment in all cases: relative viability (nuclei count vs DMSO), 5 days (fraction); higher = more cells survive
AZ628 + Decitabine = compound: CC1=C(C=C(C=C1)NC(=O)C2=CC(=CC=C2)C(C)(C)C#N)NC3=CC4=C(C=C3)N=CN(C4=O)C [AZ628] + Nc1ncn([C@H]2C[C@H](O)[C@@H](CO)O2)c(=O)n1 [Decitabine] (partner 2 µM)
Summary of the method: (§1)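 Medians of duplicate plates are given as relative viability. That measure is the nuclei count in treated wells divided by the count in vehicle wells. Counts were taken on 4× images of lung cancer cell lines in 1536-well plates, 5 days after pin-tool dosing the day after seeding with one drug alone or a fixed anchor-drug dose plus five library-drug doses (not always all listed) in √10 steps.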

QS11 + Pictilisib = compound: C1CC2=C(C1)C=C(C=C2)OC3=NC(=C4C(=N3)N(C=N4)CC5=CC=C(C=C5)C6=CC=CC=C6)N[C@@H](CC7=CC=CC=C7)CO [QS11] + CS(=O)(=O)N1CCN(Cc2cc3nc(-c4cccc5[nH]ncc45)nc(N4CCOCC4)c3s2)CC1 [Pictilisib] (partner 1 µM)
Summary of the method: as §1

AZ628 + Phenformin = compound: CC1=C(C=C(C=C1)NC(=O)C2=CC(=CC=C2)C(C)(C)C#N)NC3=CC4=C(C=C3)N=CN(C4=O)C [AZ628] + N=C(N)NC(=N)NCCc1ccccc1 [Phenformin] (partner 250 µM)
Summary of the method: as §1

QS11 + Bortezomib = compound: C1CC2=C(C1)C=C(C=C2)OC3=NC(=C4C(=N3)N(C=N4)CC5=CC=C(C=C5)C6=CC=CC=C6)N[C@@H](CC7=CC=CC=C7)CO [QS11] + CC(C)C[C@H](NC(=O)[C@H](Cc1ccccc1)NC(=O)c1cnccn1)B(O)O [Bortezomib] (partner 0.002 µM)
Summary of the method: as §1

Cell Line	relative viability (AZ628 + Decitabine; first compound 0.08 µM)	relative viability (AZ628 + Decitabine; first compound 0.253 µM)	relative viability (AZ628 + Decitabine; first compound 0.8 µM)	relative viability (AZ628 + Decitabine; first compound 2.53 µM)	relative viability (AZ628 + Decitabine; first compound 8 µM)	relative viability (QS11 + Pictilisib; first compound 0.08 µM)	relative viability (QS11 + Pictilisib; first compound 0.253 µM)	relative viability (QS11 + Pictilisib; first compound 0.8 µM)	relative viability (QS11 + Pictilisib; first compound 2.53 µM)	relative viability (QS11 + Pictilisib; first compound 8 µM)	relative viability (AZ628 + Phenformin; first compound 0.08 µM)	relative viability (AZ628 + Phenformin; first compound 0.253 µM)	relative viability (AZ628 + Phenformin; first compound 0.8 µM)	relative viability (AZ628 + Phenformin; first compound 2.53 µM)	relative viability (AZ628 + Phenformin; first compound 8 µM)	relative viability (QS11 + Bortezomib; first compound 0.08 µM)	relative viability (QS11 + Bortezomib; first compound 0.253 µM)	relative viability (QS11 + Bortezomib; first compound 0.8 µM)	relative viability (QS11 + Bortezomib; first compound 2.53 µM)	relative viability (QS11 + Bortezomib; first compound 8 µM)
A549	0.262	0.24	0.268	0.287	0.206	0.623	0.558	0.396	0.41	0.208	0.19	0.161	0.136	0.135	0.141					
NCI-H1395	0.678	0.698	0.667	0.647	0.788		0.614	0.772	0.645	0.619	0.478	0.39	0.423	0.436	0.422					
IA-LM						0.387	0.343		0.257	0.354						0.978	0.856	0.677	0.665	0.328
Calu-6						1.02	0.907	0.918	1.15	1						1.12	1.07	0.953	1.06	0.817
NCI-H1648	0.72	0.563	0.453	0.453	0.489															
NCI-H1623											0.6	0.524	0.382	0.505	0.437					
NCI-H1703						0.281	0.242	0.264	0.253	0.344						0.323	0.376	0.254	0.236	0.203
NCI-H1793	0.616	0.442	0.458	0.441	0.184	0.259	0.329	0.356	0.309	0.31	0.433	0.25	0.333	0.314	0.302					
NCI-H1563						0.718	0.703	0.68	0.586	0.617	0.694	0.661	0.672	0.654	0.679	0.822	0.825	0.853	0.769	0.722
NCI-H2170	0.448	0.483	0.446	0.439	0.456	0.326	0.356	0.327	0.276	0.263	0.447	0.398	0.402	0.41	0.381					
NCI-H358	0.233	0.192	0.184	0.195	0.158	0.338	0.315	0.387	0.564	0.553	0.32	0.208	0.216	0.222	0.216					
NCI-H1944	0.426	0.434	0.414	0.416	0.282	0.331	0.346		0.353	0.39	0.188	0.181	0.184	0.177	0.187					
NCI-H2228						0.254	0.507	0.513	0.427	0.319	0.25	0.274	0.252	0.218	0.206	0.974	1.04	1.15	1.26	1.12
